In PubChem BioAssay (NCI):
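How tested: cells in 96-well plates exposed to compound for 48 hours at five concentrations. TGI marks complete inhibition of growth.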

Legend:
Test in all cases: NCI-60 cell line screen, 48 h
[1] = test system: 786-0 renal
[2] = test system: A498 renal
[3] = test system: A549 NSCLC
[4] = test system: ACHN renal
[5] = test system: BT-549 breast
[6] = test system: CAKI-1 renal
[7] = test system: CCRF-CEM leukemia
[8] = test system: COLO 205 colon
[9] = test system: DU-145 prostate
[10] = test system: EKVX NSCLC
[11] = test system: HCC-2998 colon
[12] = test system: HCT-116 colon
[13] = test system: HCT-15 colon
[14] = test system: HL-60(TB) leukemia
[15] = test system: HOP-62 NSCLC
[16] = test system: HOP-92 NSCLC
[17] = test system: HS 578T breast
[18] = test system: HT29 colon
[19] = test system: IGROV1 ovarian
[20] = test system: K-562 leukemia
[21] = test system: KM12 colon
[22] = test system: LOX IMVI melanoma
[23] = test system: M14 melanoma
[24] = test system: MCF7 breast
[25] = test system: MDA-MB-231 breast
[26] = test system: MDA-MB-435
[27] = test system: MDA-N
[28] = test system: MOLT-4 leukemia
[29] = test system: NCI-H226 lung
[30] = test system: NCI-H23 lung
[31] = test system: NCI-H460 lung
[32] = test system: NCI/ADR-RES ovarian
[33] = test system: OVCAR-3 ovarian
[34] = test system: OVCAR-4 ovarian
[35] = test system: OVCAR-5 ovarian
[36] = test system: OVCAR-8 ovarian
[37] = test system: PC-3 prostate
[38] = test system: RPMI-8226 leukemia
[39] = test system: RXF 393 renal
[40] = test system: SF-268 CNS
[41] = test system: SF-295 CNS
[42] = test system: SK-MEL-2 melanoma
[43] = test system: SK-MEL-28 melanoma
[44] = test system: SK-MEL-5 melanoma
[45] = test system: SK-OV-3 ovarian
[46] = test system: SN12C renal
[47] = test system: SNB-19 CNS
[48] = test system: SR leukemia
[49] = test system: SW-620 colon
[50] = test system: T-47D breast
[51] = test system: TK-10 renal
[52] = test system: U251 CNS
[53] = test system: UACC-257 melanoma
[54] = test system: UACC-62 melanoma
[55] = test system: UO-31 renal
[56] = test system: MALME-3M melanoma
[57] = test system: NCI-H522 lung
[58] = test system: SNB-75 CNS
[59] = test system: SF-539 CNS

In the case of CC1C2C=CC1C(c1c3ccc(=O)c(O)c-3oc3c(O)c(O)ccc13)C2C(=O)O (configuration not stated), the TGI [1] is reported as over 100 µM, the TGI [2] is reported as over 100 µM and the TGI [3] is reported as over 100 µM. It also gave a TGI [4] of over 100 µM, a TGI [5] of over 100 µM and a TGI [6] of over 100 µM. For the same compound, the TGI [7] was 7.38 µM, the TGI [8] was over 100 µM and the TGI [9] was over 100 µM. It also gave a TGI [10] of over 100 µM, a TGI [11] of over 100 µM and a TGI [12] of 69.7 µM. For the same compound, the TGI [13] was over 100 µM, the TGI [14] was over 100 µM and the TGI [15] was over 100 µM. For the same compound, the TGI [16] was over 100 µM, the TGI [17] was over 100 µM and the TGI [18] was over 100 µM. The TGI [19] was over 100 µM, the TGI [20] was 45.8 µM and the TGI [21] was over 100 µM. For the same compound, the TGI [22] was 49.1 µM, the TGI [23] was over 100 µM and the TGI [24] was 40.8 µM. For the same compound, the TGI [25] was over 100 µM, the TGI [26] was 36.2 µM and the TGI [27] was 45.9 µM. For the same compound, the TGI [28] was 56.4 µM, the TGI [29] was 86.5 µM and the TGI [30] was over 100 µM. For the same compound, the TGI [31] was over 100 µM, the TGI [32] was over 100 µM and the TGI [33] was over 100 µM. It also gave a TGI [34] of over 100 µM, a TGI [35] of over 100 µM and a TGI [36] of over 100 µM. For the same compound, the TGI [37] was over 100 µM, the TGI [38] was 59.5 µM and the TGI [39] was over 100 µM. For the same compound, the TGI [40] was over 100 µM, the TGI [41] was over 100 µM and the TGI [42] was over 100 µM. The TGI [43] was over 100 µM, the TGI [44] was over 100 µM and the TGI [45] was over 100 µM. For the same compound, the TGI [46] was 51.1 µM, the TGI [47] was over 100 µM and the TGI [48] was over 100 µM. The TGI [49] was over 100 µM, the TGI [50] was over 100 µM and the TGI [51] was over 100 µM. It also gave a TGI [52] of over 100 µM, a TGI [53] of over 100 µM and a TGI [54] of over 100 µM. The TGI [55] was over 100 µM.
With O=C(O)c1c(-c2ccccc2)c(=O)[nH]c2ccccc12 the TGI [1] was over 100 µM, the TGI [2] was over 100 µM and the TGI [3] was over 100 µM. The TGI [4] was over 100 µM, the TGI [5] was over 100 µM and the TGI [7] was over 100 µM. The TGI [8] was over 100 µM, the TGI [9] was over 100 µM and the TGI [10] was over 100 µM. It also gave a TGI [11] of over 100 µM, a TGI [12] of over 100 µM and a TGI [13] of over 100 µM. For the same compound, the TGI [14] was over 100 µM, the TGI [15] was over 100 µM and the TGI [17] was over 100 µM. The TGI [18] was over 100 µM, the TGI [19] was over 100 µM and the TGI [20] was over 100 µM. For the same compound, the TGI [21] was over 100 µM, the TGI [22] was over 100 µM and the TGI [23] was over 100 µM. For the same compound, the TGI [56] was over 100 µM, the TGI [24] was over 100 µM and the TGI [25] was over 100 µM. The TGI [26] was over 100 µM, the TGI [27] was over 100 µM and the TGI [28] was over 100 µM. For the same compound, the TGI [29] was over 100 µM, the TGI [30] was over 100 µM and the TGI [31] was over 100 µM. The TGI [57] was over 100 µM, the TGI [32] was over 100 µM and the TGI [33] was over 100 µM. The TGI [34] was over 100 µM, the TGI [35] was over 100 µM and the TGI [36] was over 100 µM. The TGI [37] was over 100 µM, the TGI [38] was over 100 µM and the TGI [39] was over 100 µM. It also gave a TGI [40] of over 100 µM, a TGI [41] of over 100 µM and a TGI [42] of over 100 µM. The TGI [43] was over 100 µM, the TGI [44] was over 100 µM and the TGI [45] was over 100 µM. The TGI [46] was over 100 µM, the TGI [47] was over 100 µM and the TGI [58] was over 100 µM. For the same compound, the TGI [48] was over 100 µM, the TGI [49] was over 100 µM and the TGI [50] was over 100 µM. The TGI [51] was over 100 µM, the TGI [52] was over 100 µM and the TGI [53] was over 100 µM. It also gave a TGI [54] of over 100 µM and a TGI [55] of over 100 µM.
Cc1cn(CCCCCCOC(=O)NC(CCCN=C(N)N)C(=O)O)c(=O)[nH]c1=O (configuration not stated) gave a TGI [1] of over 100 µM, a TGI [2] of over 100 µM and a TGI [3] of over 100 µM. For the same compound, the TGI [4] was over 100 µM, the TGI [5] was over 100 µM and the TGI [6] was over 100 µM. For the same compound, the TGI [7] was over 100 µM, the TGI [8] was over 100 µM and the TGI [9] was over 100 µM. It also gave a TGI [10] of over 100 µM, a TGI [11] of over 100 µM and a TGI [12] of over 100 µM. It also gave a TGI [13] of over 100 µM, a TGI [14] of over 100 µM and a TGI [15] of over 100 µM. It also gave a TGI [16] of over 100 µM, a TGI [17] of over 100 µM and a TGI [18] of over 100 µM. It also gave a TGI [19] of over 100 µM, a TGI [20] of over 100 µM and a TGI [21] of over 100 µM. For the same compound, the TGI [22] was over 100 µM, the TGI [23] was over 100 µM and the TGI [24] was over 100 µM. The TGI [25] was over 100 µM, the TGI [26] was over 100 µM and the TGI [27] was over 100 µM. For the same compound, the TGI [28] was over 100 µM, the TGI [29] was over 100 µM and the TGI [30] was over 100 µM. It also gave a TGI [31] of over 100 µM, a TGI [32] of over 100 µM and a TGI [33] of over 100 µM. The TGI [34] was over 100 µM, the TGI [35] was over 100 µM and the TGI [36] was over 100 µM. It also gave a TGI [37] of over 100 µM, a TGI [38] of over 100 µM and a TGI [39] of over 100 µM. For the same compound, the TGI [40] was over 100 µM, the TGI [41] was over 100 µM and the TGI [59] was over 100 µM. The TGI [42] was over 100 µM, the TGI [43] was over 100 µM and the TGI [45] was over 100 µM. It also gave a TGI [46] of over 100 µM, a TGI [47] of over 100 µM and a TGI [58] of over 100 µM. It also gave a TGI [48] of over 100 µM, a TGI [49] of over 100 µM and a TGI [50] of over 100 µM. It also gave a TGI [51] of over 100 µM, a TGI [52] of over 100 µM and a TGI [53] of over 100 µM. It also gave a TGI [54] of over 100 µM and a TGI [55] of over 100 µM.
